From patent US9655862B2, “Ocular nanoformulation and method of use in angiogenesis-mediated disorders” (priority 2013, dated 2017)
“Also recorded” adds a separate entry of the source.

Assays:
[1] = tested on: neovascularization secondary to ROP; conditions: intravitreal injection; cited from earlier work
[2] = tested on: Neovascularization-mediated by VEGF+FGF2; assay: Chick chorioallantoic membrane (CAM) model of angiogenesis; assay type: in vivo; conditions: VEGF and FGF2 at 1 μg/ml each, SNACH 2 ug/CAM, 3-day incubation
Method: The effect of SNACH on Neovascularization-mediated by VEGF+FGF2 was examined in the CAM model. Briefly, ten-day old chick embryos were purchased from Spafas, Inc. (Preston, Conn.) and incubated at 37° C. with 55% relative humidity. A hypodermic needle was used to make a small hole in the shell at the air sac and a second hole will be made on the broadside of the egg, directly over an avascular portion of the embryonic membrane that will be identified by candling. A false air sac was created beneath the second hole by the application of negative pressure at the first hole, causing the CAM to separate from the shell. A window, approximately 1.0 cm^2, was cut in the shell over the dropped CAM with a small crafts grinding wheel (Dremel, Division of Emerson Electric Co., Racine, Wis.), allowing direct access to the underlying CAM. […] Digital images of CAM sections exposed to filters were collected, using a 3-CCD color video camera system (Toshiba America, New York, N.Y.), and analyzed with Image-Pro software (Media Cybernetics, Silver Spring, Md.). The numbers of vessel branch points contained in a circular region equal to the area of each filter disk were counted. One image were counted in each CAM preparation, and findings from 6-8 CAM preparations/group were analyzed for each treatment condition.

[3] = tested on: retinal neovascularization; assay: Oxygen-induced retinopathy mouse model (retinopathy of prematurity), retinal neovascularization; assay type: in vivo
Method: SNACH and SNACH Nanoparticles (1 mg/kg) in PBS at pH 7-7.5, Control: PBS at 1 mg/ml on postnatal day 12 and 15, Mode of Administration: Intraperitoneal or eye drops.
An animal model of a mice model was used. The mice model used was the Oxygen-induced retinopathy mouse model as described by Smith L E, W. E., McLellan A, Kostyk S K, D'Amato R, Sullivan R, D'Amore P A. (1994), “Oxygen-induced retinopathy in the mouse”, Invest Ophthalmol Vis Sci 35(1): 101-111.
The neonatal mice were exposed to hyperoxic conditions for 5 days, beginning at age p7 for the pups and continuing through p12 when they are returned to normal oxygen atmosphere (8-10 animals/group). Treatment group SNACH at 1 mg/kg administered IP or eye drops at two separate doses one at P12 and the other at P15. Day 17 animals were scarified and eyes removed for retinal Neovascularization evaluation. The removed eyes were stained with H&E stain. Additionally in upcoming study 3 additional animals per group were used for ocular tissue levels of SNACH after SNACH administration by LC/MS/MS.
Induction of oxygen-induced retinopathy in mouse model, in accordance with embodiments of the present invention. […]

[4] = tested on: choroidal neovascular membranes; conditions: wet AMD, Phase 3 clinical trials; cited from earlier work

Molecule: bevacizumab
- regression of neovascularization secondary to ROP [1]: regression of neovascularization

Molecule: sulfated non-anticoagulant heparin [SNACH]
- inhibition of angiogenesis induced by VEGF and FGF2 [2]: maximal inhibition of angiogenesis; also recorded: potent angiogenesis inhibitors
- neovascular regression in ROP mice model ([3]; ROP mice): causes neovascular regression
- inhibition of retinal neovascularization (mean total area of neovascularization) ([3]; neonatal mouse, 1.0 mg/kg, IP on day 12 and 15): 60-70%

B1: ranibizumab (antibody, chains of the INN, looked up, V domains shown)
VH: EVQLVESGGGLVQPGGSLRLSCAASGYDFTHYGMNWVRQAPGKGLEWVGWINTYTGEPTYAADFKRRFTFSLDTSKSTAYLQMNSLRAEDTAVYYCAKYPYYYGTSHWYFDVWGQGTLVTVSS
VL: DIQLTQSPSSLSASVGDRVTITCSASQDISNYLNWYQQKPGKAPKVLIYFTSSLHSGVPSRFSGSGSGTDFTLTISSLQPEDFATYYCQQYSTVPWTFGQGTKVEIK
modifications: Fab
notes: anti-VEGF pharmacotherapy (Lucentis, Genentech)
- regression of choroidal neovascular membranes [4]: regression of choroidal neovascular membranes
